Data published in ChEMBL document CHEMBL2311360 (J Med Chem, 2013).
pIC50: −log10 of the molar value.

How the values were obtained:
HCT-116/VM46 = experiment: Cytotoxicity against human vinblastine-resistant HCT116/VM46 cells assessed as growth inhibition after 72 hrs by phosphatase assay; type: functional, cell-based; conditions: HCT-116/VM46, 72 h
L1210 = experiment: Cytotoxicity against mouse L1210 cells assessed as growth inhibition after 72 hrs by phosphatase assay; type: functional, cell-based; conditions: L1210, 72 h
HCT-116 = experiment: Cytotoxicity against human HCT116 cells assessed as growth inhibition after 72 hrs by phosphatase assay; type: functional, cell-based; conditions: HCT-116, 72 h
Tubulin (Sus scrofa) = Tubulin (Sus scrofa) (UniProt P02554+P02550); experiment: Displacement of [3H]Vinblastine from pig tubulin at 7.2 x 10^-5 M after 60 mins; type: protein assay
Sequence of Tubulin (Sus scrofa) (P02550 whole entry, looked up): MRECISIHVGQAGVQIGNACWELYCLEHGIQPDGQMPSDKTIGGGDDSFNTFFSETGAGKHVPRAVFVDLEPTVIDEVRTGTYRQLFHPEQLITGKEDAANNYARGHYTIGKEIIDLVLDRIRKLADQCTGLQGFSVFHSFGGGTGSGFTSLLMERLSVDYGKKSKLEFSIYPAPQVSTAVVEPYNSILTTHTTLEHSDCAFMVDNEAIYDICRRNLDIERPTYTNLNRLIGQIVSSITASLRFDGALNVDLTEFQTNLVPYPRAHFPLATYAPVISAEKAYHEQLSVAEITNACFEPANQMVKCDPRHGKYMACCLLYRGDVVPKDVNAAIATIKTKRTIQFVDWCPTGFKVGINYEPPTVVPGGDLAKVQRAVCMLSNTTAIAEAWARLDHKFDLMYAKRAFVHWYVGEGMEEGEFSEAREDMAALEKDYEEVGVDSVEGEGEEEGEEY
Sequence of Tubulin (Sus scrofa) (P02554 whole entry, looked up): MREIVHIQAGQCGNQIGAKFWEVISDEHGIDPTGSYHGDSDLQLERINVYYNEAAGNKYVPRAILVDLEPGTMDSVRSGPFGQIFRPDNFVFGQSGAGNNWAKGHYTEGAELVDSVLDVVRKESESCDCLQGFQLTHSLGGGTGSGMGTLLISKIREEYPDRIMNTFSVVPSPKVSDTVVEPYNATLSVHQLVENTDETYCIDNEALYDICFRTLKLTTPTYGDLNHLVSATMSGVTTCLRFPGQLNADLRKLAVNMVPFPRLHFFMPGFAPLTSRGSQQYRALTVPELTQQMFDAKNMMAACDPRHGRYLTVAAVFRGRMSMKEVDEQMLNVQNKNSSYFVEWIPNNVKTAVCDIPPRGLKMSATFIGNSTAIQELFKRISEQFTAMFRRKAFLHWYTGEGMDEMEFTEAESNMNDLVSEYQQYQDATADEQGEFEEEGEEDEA

Row | inhibition (Tubulin (Sus scrofa)) [%] | SMILES | pIC50 (HCT-116/VM46) | pIC50 (L1210) | pIC50 (HCT-116)
1 | – | CC[C@]1(O)C[C@H]2CN(CCc3c([nH]c4ccccc34)[C@@](C(=O)OC)(c3cc4c(cc3OC)N(C)[C@H]3[C@@](O)(C(=O)OC)[C@@H](OC(C)=O)[C@]5(CC)C=CCN6CC[C@]43[C@@H]65)C2)C1 | 5.08 | 7.12 | 7.10
2 | – | CC[C@]1(O)C[C@H]2CN(CCc3c([nH]c4ccccc34)[C@@](C(=O)OC)(c3cc4c(cc3OC)N(C)[C@H]3[C@@](O)(C(=O)OC)[C@H](OC(C)=O)[C@]5(CC)CCN6CC[C@]43[C@@H]65)C2)C1 | 5.11 | 6.25 | 7.10
3 | – | CC[C@]1(O)C[C@H]2CN(CCc3c([nH]c4ccccc34)[C@@](C(=O)OC)(c3cc4c(cc3OC)N(C)[C@@H]3[C@]45CCCN4CCC[C@@](CC)(C[C@]3(O)C(=O)OC)[C@H]45)C2)C1 | < 5.00 | 5.24 | 5.13
4 | – | CC[C@]1(O)C[C@H]2CN(CCc3c([nH]c4ccccc34)[C@@](C(=O)OC)(c3cc4c(cc3OC)N(C)[C@@H]3[C@]45CCN4CC=C[C@@](CC)(C[C@]3(O)C(=O)OC)[C@H]45)C2)C1 | 6.18 | 7.22 | 7.22
5 | – | CC[C@]1(O)C[C@H]2CN(CCc3c([nH]c4ccccc34)[C@@](C(=O)OC)(c3cc4c(cc3OC)N(C)[C@@H]3[C@]45CCN4CCC[C@@](CC)(C[C@]3(O)C(=O)OC)[C@H]45)C2)C1 | 5.40 | 6.18 | 6.17
6 | – | CCC1=C[C@H]2CN(CCc3c([nH]c4ccccc34)[C@@](C(=O)OC)(c3cc4c(cc3OC)N(C)[C@H]3[C@@](O)(C(=O)OC)[C@H](OC(C)=O)[C@]5(CC)CCN6CC[C@]43[C@@H]65)C2)C1 | 5.15 | 6.15 | 6.20
7 | – | CCC1=C[C@@H]2CN(C1)Cc1c([nH]c3ccccc13)[C@@](C(=O)OC)(c1cc3c(cc1OC)N(C)[C@H]1[C@@](O)(C(=O)OC)[C@H](OC(C)=O)[C@]4(CC)C=CCN5CC[C@]31[C@@H]54)C2 [VINORELBINE] | 6.22 | 7.19 | 7.12
8 | – | CC[C@]1(O)C[C@H]2CN(CCc3c([nH]c4ccccc34)[C@@](C(=O)OC)(c3cc4c(cc3OC)N(C)[C@@H]3[C@]45CCCN4CCC[C@@](CC)(C[C@]3(O)C(=O)OC)[C@@H]45)C2)C1 | 6.05 | 7.26 | 7.10
9 | – | CC[C@]1(O)C[C@H]2CN(CCc3c([nH]c4ccccc34)[C@@](C(=O)OC)(c3cc4c(cc3OC)N(C)[C@@H]3[C@]45CCCN4CC=C[C@@](CC)(C[C@]3(O)C(=O)OC)[C@@H]45)C2)C1 | 6.14 | 7.19 | 7.00
10 | – | CCC1=C[C@H]2CN(CCc3c([nH]c4ccccc34)[C@@](C(=O)OC)(c3cc4c(cc3OC)N(C)[C@H]3[C@@](O)(C(=O)OC)[C@H](OC(C)=O)[C@]5(CC)CCCN6CC[C@]43[C@@H]65)C2)C1 | 5.46 | 6.13 | 6.05
11 | – | CC[C@]1(O)C[C@H]2CN(CCc3c([nH]c4ccccc34)[C@@](C(=O)OC)(c3cc4c(cc3OC)N(C)[C@H]3[C@@](O)(C(=O)OC)[C@@H](OC(C)=O)[C@]5(CC)CCN6CCC[C@]43[C@@H]65)C2)C1 | 5.12 | 6.22 | 6.17
12 | 77.4 | CC[C@]1(O)C[C@H]2CN(CCc3c([nH]c4ccccc34)[C@@](C(=O)OC)(c3cc4c(cc3OC)N(C)[C@H]3[C@@](O)(C(=O)OC)[C@H](OC(C)=O)[C@]5(CC)CCCN6CC[C@]43[C@@H]65)C2)C1 | 5.35 | 6.24 | 6.43
13 | 50 | CC[C@]1(O)C[C@@H]2CN(CCc3c([nH]c4ccccc34)[C@@](C(=O)OC)(c3cc4c(cc3OC)N(C)[C@H]3[C@@](O)(C(=O)OC)[C@H](OC(C)=O)[C@]5(CC)C=CCN6CC[C@]43[C@@H]65)C2)C1 | – | – | –
14 | 68.5 | CC[C@]1(O)C[C@H]2CN(CCc3c([nH]c4ccccc34)[C@@](C(=O)OC)(c3cc4c(cc3OC)N(C)[C@@H]3[C@]45CCCN4CC=C[C@@](CC)(C[C@]3(O)C(=O)OC)[C@H]45)C2)C1 | 5.24 | 6.43 | 6.37
15 | 48.4 | CC[C@]1(O)C[C@H]2CN(CCc3c([nH]c4ccccc34)[C@@](C(=O)OC)(c3cc4c(cc3OC)N(C)[C@H]3[C@@](O)(C(=O)OC)[C@H](OC(C)=O)[C@]5(CC)CCN6CCC[C@]43[C@@H]65)C2)C1 | 6.35 | 8.14 | 8.19
